Assay results as given in patent publication US12060388B2, “Cell-penetrating peptides and methods of use thereof” (priority 2018, dated 2024).

Columns and labels:
retromer (Vps35) = target: T1, retromer (Vps35) (Homo sapiens, UniProt O75436+Q96QK1); test: Biotinylated peptide pull-down from HeLa S3 lysate, blot for Vps35; format: binding; details: streptavidin pull-down
T1 construct: endogenous in cells; host or cells: HeLa S3 lysate (RIPA-MOPS buffer)
Experimental: For peptide pull-down experiments, N-terminal biotinylated L2 peptides (sequences shown in FIG. 2A) were purchased from ABClonal Science (Woburn, MA) at >95% purity. L2 wild-type was dissolved initially in 30% acetic acid and DMSO (˜70 μl each), and then dissolved in sterile deionized water with 0.01% sodium azide. L2-6A, L2-3R and L2-DM were initially solubilized in a small amount of DMSO (˜70-80 μl) and then dissolved in sterile deionized water with 0.01% sodium azide. Peptide stocks (5 mg/ml) were aliquoted and stored at −20° C. HeLa S3 cells plated in six-well plates were lysed at ˜80% confluency with 500 μl RIPA-MOPS buffer (20 mM morpholinepropanesulfonic acid [pH 7.0], 150 mM NaCl, 1% Nonidet P-40, 1 mM EDTA, 1% deoxycholic acid, 0.1% sodium dodecyl sulfate [SDS]) supplemented with protease inhibitors (1×HALT protease and phosphatase inhibitor cocktail (Thermo Scientific, Waltham, MA; #78443)). The lysate was centrifuged at 14,000 rpm for 20 min, and the supernatant was incubated with 10 μg of a biotinylated peptide for two h at 4° C. Fifty μl of streptavidin agarose beads slurry (Pierce, Rockford, IL; #20349) was added, and the mixture was gently rocked for 45 min at 4° C. […] Samples were analyzed by SDS-PAGE and immunoblotting with antibody recognizing Vps35 (Abcam, Cambridge, MA; ab57632).

[1] = tested on: retromer subunit VPS35 / HPV16 L1; test: Proximity ligation assay for HPV16 L1 and VPS35 in peptide-treated infected cells; format: cell-based; details: 14 μM, MOI of 200, eight h.p.i.
Experimental: FIG. 19A depicts uninfected HeLa cells were incubated with 14 μM bP16/16 or bPDM/16 for three hours (“b” refers to peptides with an N-terminal biotin moiety). Cells were then fixed, permeabilized, and stained with AlexaFluor-streptavidin (green) and with anti-VPS35 (red). Overlapping signal is pseudocolored yellow. Nuclei were stained blue with DAPI. Mander's correlation coefficients for overlap between streptavidin and VPS35 staining are shown at right, with each spot representing an individual cell. Approximately 100 cells were analyzed for each condition. […] Images were processed by Fiji and quantitatively analyzed by BlobFinder software to measure total fluorescence intensity per cell in each sample. […]
For the proximity ligation assay, after an hour incubation with peptides, HeLa-S3 cells were infected with wild-type PSV at MOI of 200 or mutant PsV containing the same number of reporter plasmid genomes. […] The nuclei were stained by using Abcam fluorescence mounting medium with DAPI and images were acquired by a Leica SP5 inverted fluorescence microscope. […] The images were processed by Fiji and quantitatively analyzed by BlobFinder software to measure total fluorescence intensity in each sample. The average fluorescence intensity per cell in each sample was normalized to the control sample as indicated in each experiment. […]

SMILES: CC[C@H](C)[C@H](NC(=O)[C@@H](NC(=O)[C@H](Cc1ccc(O)cc1)NC(=O)[C@H](CCC(N)=O)NC(=O)[C@@H]1CCCN1C(=O)[C@H](CO)NC(=O)[C@@H](N)CS)[C@@H](C)O)C(=O)N[C@H](C(=O)N[C@@H](C)C(=O)N[C@@H](CC(=O)O)C(=O)N[C@@H](C)C(=O)NCC(=O)N[C@@H](CC(=O)O)C(=O)N[C@@H](Cc1ccccc1)C(=O)N[C@@H](Cc1ccc(O)cc1)C(=O)N[C@@H](CC(C)C)C(=O)N[C@@H](Cc1c[nH]cn1)C(=O)N1CCC[C@H]1C(=O)N[C@@H](CO)C(=O)N[C@@H](Cc1ccc(O)cc1)C(=O)N[C@@H](Cc1ccc(O)cc1)C(=O)N[C@@H](CCSC)C(=O)N[C@@H](CC(C)C)C(=O)N[C@@H](CCCNC(=N)N)C(=O)N[C@@H](CCCCN)C(=O)N[C@@H](CCCNC(=N)N)C(=O)N[C@@H](CCCNC(=N)N)C(=O)N[C@@H](CCCCN)C(=O)N[C@@H](CCCNC(=N)N)C(=O)O)[C@@H](C)CC [P16/16]
- retromer binding of L2 peptide in vitro (retromer (Vps35)): competent for retromer binding in vitro
- interaction of retromer with HPV (VPS35/L1 PLA) [1]: inhibited the interaction of retromer with HPV
